In patent US9693556B2, “Herbicidal pyridazinone derivatives” (SYNGENTA LIMITED, priority 2011, dated 2017):

How the values were obtained:
Format in all cases: in vivo
[1] = system: Alopecurus myosuroides (ALOMY); assay: Pre-emergence herbicidal glasshouse test on Alopecurus myosuroides; details: pre-emergence; 1000 g/h; evaluated after 13 days
Procedure, shortened: (§1)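 Plants sprayed 1 day (pre-emergence) or 8 days (post-emergence) after sowing with compound at 1000 g/h in acetone/water 50:50 with 0.5% Tween 20; glasshouse 24/16° C, 14 h light, 65% humidity. Damage assessed after 13 days, scored 1–5 (5 = 80-100%, 1 = 0-19%).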

[2] = system: Setaria faberi (SETFA); assay: Pre-emergence herbicidal glasshouse test on Setaria faberi; details: pre-emergence; 1000 g/h; evaluated after 13 days
Procedure, shortened: as §1

[3] = system: Echinochloa crus-galli (ECHCG); assay: Pre-emergence herbicidal glasshouse test on Echinochloa crus-galli; details: pre-emergence; 1000 g/h; evaluated after 13 days
Procedure, shortened: as §1

[4] = system: Solanum nigrum (SOLNI); assay: Pre-emergence herbicidal glasshouse test on Solanum nigrum; details: pre-emergence; 1000 g/h; evaluated after 13 days
Procedure, shortened: as §1

[5] = system: Amaranthus retoflexus (AMARE); assay: Pre-emergence herbicidal glasshouse test on Amaranthus retoflexus; details: pre-emergence; 1000 g/h; evaluated after 13 days
Procedure, shortened: as §1

[6] = system: Ipomoea hederacea (IPOHE); assay: Pre-emergence herbicidal glasshouse test on Ipomoea hederacea; details: pre-emergence; 1000 g/h; evaluated after 13 days
Procedure, shortened: as §1

[7] = system: Alopecurus myosuroides (ALOMY); assay: Post-emergence herbicidal glasshouse test on Alopecurus myosuroides; details: post-emergence; 1000 g/h; evaluated after 13 days
Procedure, shortened: as §1

[8] = system: Setaria faberi (SETFA); assay: Post-emergence herbicidal glasshouse test on Setaria faberi; details: post-emergence; 1000 g/h; evaluated after 13 days
Procedure, shortened: as §1

[9] = system: Echinochloa crus-galli (ECHCG); assay: Post-emergence herbicidal glasshouse test on Echinochloa crus-galli; details: post-emergence; 1000 g/h; evaluated after 13 days
Procedure, shortened: as §1

[10] = system: Solanum nigrum (SOLNI); assay: Post-emergence herbicidal glasshouse test on Solanum nigrum; details: post-emergence; 1000 g/h; evaluated after 13 days
Procedure, shortened: as §1

[11] = system: Amaranthus retoflexus (AMARE); assay: Post-emergence herbicidal glasshouse test on Amaranthus retoflexus; details: post-emergence; 1000 g/h; evaluated after 13 days
Procedure, shortened: as §1

[12] = system: Ipomoea hederacea (IPOHE); assay: Post-emergence herbicidal glasshouse test on Ipomoea hederacea; details: post-emergence; 1000 g/h; evaluated after 13 days
Procedure, shortened: as §1

Structure (SMILES): Cc1c(-c2cnn(CC3CC3)c(=O)c2O)ccc(S(C)(=O)=O)c1C1=NOCC1 [Compound 1.120]
- PRE Application ALOMY herbicidal damage (five point scale) [1]: 3 (3=40-59% damage)
- PRE Application SETFA herbicidal damage (five point scale) [2]: 4 (4=60-79% damage)
- PRE Application ECHCG herbicidal damage (five point scale) [3]: 5 (5=80-100% damage)
- PRE Application SOLNI herbicidal damage (five point scale) [4]: 4 (4=60-79% damage)
- PRE Application AMARE herbicidal damage (five point scale) [5]: 5 (5=80-100% damage)
- PRE Application IPOHE herbicidal damage (five point scale) [6]: 4 (4=60-79% damage)
- POST Application ALOMY herbicidal damage (five point scale) [7]: 5 (5=80-100% damage)
- POST Application SETFA herbicidal damage (five point scale) [8]: 5 (5=80-100% damage)
- POST Application ECHCG herbicidal damage (five point scale) [9]: 5 (5=80-100% damage)
- POST Application SOLNI herbicidal damage (five point scale) [10]: 5 (5=80-100% damage)
- POST Application AMARE herbicidal damage (five point scale) [11]: 5 (5=80-100% damage)
- POST Application IPOHE herbicidal damage (five point scale) [12]: 5 (5=80-100% damage)

Structure (SMILES): Cn1ncc(-c2ccc(S(C)(=O)=O)c(COCC(F)(F)F)c2Cl)c(O)c1=O [Compound 1.049]
- PRE Application ALOMY herbicidal damage (five point scale) [1]: 2 (2=20-39% damage)
- PRE Application SETFA herbicidal damage (five point scale) [2]: 3 (3=40-59% damage)
- PRE Application ECHCG herbicidal damage (five point scale) [3]: 5 (5=80-100% damage)
- PRE Application SOLNI herbicidal damage (five point scale) [4]: 5 (5=80-100% damage)
- PRE Application AMARE herbicidal damage (five point scale) [5]: 5 (5=80-100% damage)
- PRE Application IPOHE herbicidal damage (five point scale) [6]: 1 (1=0-19% damage)
- POST Application ALOMY herbicidal damage (five point scale) [7]: 5 (5=80-100% damage)
- POST Application SETFA herbicidal damage (five point scale) [8]: 5 (5=80-100% damage)
- POST Application ECHCG herbicidal damage (five point scale) [9]: 5 (5=80-100% damage)
- POST Application SOLNI herbicidal damage (five point scale) [10]: 5 (5=80-100% damage)
- POST Application AMARE herbicidal damage (five point scale) [11]: 5 (5=80-100% damage)
- POST Application IPOHE herbicidal damage (five point scale) [12]: 5 (5=80-100% damage)

Structure (SMILES): CCCCS(=O)(=O)c1ccccc1-c1cnn(C)c(=O)c1O [Compound 1.051]
- PRE Application ALOMY herbicidal damage (five point scale) [1]: 2 (2=20-39% damage)
- PRE Application SETFA herbicidal damage (five point scale) [2]: 1 (1=0-19% damage)
- PRE Application ECHCG herbicidal damage (five point scale) [3]: 4 (4=60-79% damage)
- PRE Application SOLNI herbicidal damage (five point scale) [4]: 1 (1=0-19% damage)
- PRE Application AMARE herbicidal damage (five point scale) [5]: 5 (5=80-100% damage)
- PRE Application IPOHE herbicidal damage (five point scale) [6]: 1 (1=0-19% damage)
- POST Application ALOMY herbicidal damage (five point scale) [7]: 1 (1=0-19% damage)
- POST Application SETFA herbicidal damage (five point scale) [8]: 2 (2=20-39% damage)
- POST Application ECHCG herbicidal damage (five point scale) [9]: 2 (2=20-39% damage)
- POST Application SOLNI herbicidal damage (five point scale) [10]: 5 (5=80-100% damage)
- POST Application AMARE herbicidal damage (five point scale) [11]: 5 (5=80-100% damage)
- POST Application IPOHE herbicidal damage (five point scale) [12]: 4 (4=60-79% damage)

Structure (SMILES): Cn1ncc(-c2ccc(OCC(F)(F)F)cc2S(C)(=O)=O)c(O)c1=O [Compound 2.030]
- PRE Application ALOMY herbicidal damage (five point scale) [1]: 5 (5=80-100% damage)
- PRE Application SETFA herbicidal damage (five point scale) [2]: 5 (5=80-100% damage)
- PRE Application ECHCG herbicidal damage (five point scale) [3]: 5 (5=80-100% damage)
- PRE Application SOLNI herbicidal damage (five point scale) [4]: 5 (5=80-100% damage)
- PRE Application AMARE herbicidal damage (five point scale) [5]: 5 (5=80-100% damage)
- PRE Application IPOHE herbicidal damage (five point scale) [6]: 4 (4=60-79% damage)
- POST Application ALOMY herbicidal damage (five point scale) [7]: 5 (5=80-100% damage)
- POST Application SETFA herbicidal damage (five point scale) [8]: 5 (5=80-100% damage)
- POST Application ECHCG herbicidal damage (five point scale) [9]: 5 (5=80-100% damage)
- POST Application SOLNI herbicidal damage (five point scale) [10]: 5 (5=80-100% damage)
- POST Application AMARE herbicidal damage (five point scale) [11]: 5 (5=80-100% damage)
- POST Application IPOHE herbicidal damage (five point scale) [12]: 5 (5=80-100% damage)

Structure (SMILES): COCn1ncc(-c2ccc(S(C)(=O)=O)c(C3=NOCC3)c2C)c(O)c1=O [Compound 1.001]
- PRE Application ALOMY herbicidal damage (five point scale) [1]: 5 (5=80-100% damage)
- PRE Application SETFA herbicidal damage (five point scale) [2]: 5 (5=80-100% damage)
- PRE Application ECHCG herbicidal damage (five point scale) [3]: 5 (5=80-100% damage)
- PRE Application SOLNI herbicidal damage (five point scale) [4]: 5 (5=80-100% damage)
- PRE Application AMARE herbicidal damage (five point scale) [5]: 5 (5=80-100% damage)
- PRE Application IPOHE herbicidal damage (five point scale) [6]: 5 (5=80-100% damage)
- POST Application ALOMY herbicidal damage (five point scale) [7]: 5 (5=80-100% damage)
- POST Application SETFA herbicidal damage (five point scale) [8]: 5 (5=80-100% damage)
- POST Application ECHCG herbicidal damage (five point scale) [9]: 5 (5=80-100% damage)
- POST Application SOLNI herbicidal damage (five point scale) [10]: 5 (5=80-100% damage)
- POST Application AMARE herbicidal damage (five point scale) [11]: 5 (5=80-100% damage)
- POST Application IPOHE herbicidal damage (five point scale) [12]: 5 (5=80-100% damage)

Structure (SMILES): Cn1ncc(-c2cc(F)ccc2Cl)c(O)c1=O [Compound 1.086]
- PRE Application ALOMY herbicidal damage (five point scale) [1]: 1 (1=0-19% damage)
- PRE Application SETFA herbicidal damage (five point scale) [2]: 1 (1=0-19% damage)
- PRE Application ECHCG herbicidal damage (five point scale) [3]: 1 (1=0-19% damage)
- PRE Application SOLNI herbicidal damage (five point scale) [4]: 1 (1=0-19% damage)
- PRE Application AMARE herbicidal damage (five point scale) [5]: 1 (1=0-19% damage)
- PRE Application IPOHE herbicidal damage (five point scale) [6]: 1 (1=0-19% damage)
- POST Application ALOMY herbicidal damage (five point scale) [7]: 1 (1=0-19% damage)
- POST Application SETFA herbicidal damage (five point scale) [8]: 1 (1=0-19% damage)
- POST Application ECHCG herbicidal damage (five point scale) [9]: 1 (1=0-19% damage)
- POST Application SOLNI herbicidal damage (five point scale) [10]: 1 (1=0-19% damage)
- POST Application AMARE herbicidal damage (five point scale) [11]: 1 (1=0-19% damage)
- POST Application IPOHE herbicidal damage (five point scale) [12]: 1 (1=0-19% damage)

Structure (SMILES): Cc1c(-c2cnn(C(C)C)c(=O)c2O)ccc(S(C)(=O)=O)c1C1=NOCC1 [Compound 1.012]
- PRE Application ALOMY herbicidal damage (five point scale) [1]: 4 (4=60-79% damage)
- PRE Application SETFA herbicidal damage (five point scale) [2]: 4 (4=60-79% damage)
- PRE Application ECHCG herbicidal damage (five point scale) [3]: 5 (5=80-100% damage)
- PRE Application SOLNI herbicidal damage (five point scale) [4]: 5 (5=80-100% damage)
- PRE Application AMARE herbicidal damage (five point scale) [5]: 5 (5=80-100% damage)
- PRE Application IPOHE herbicidal damage (five point scale) [6]: 4 (4=60-79% damage)
- POST Application ALOMY herbicidal damage (five point scale) [7]: 5 (5=80-100% damage)
- POST Application SETFA herbicidal damage (five point scale) [8]: 5 (5=80-100% damage)
- POST Application ECHCG herbicidal damage (five point scale) [9]: 5 (5=80-100% damage)
- POST Application SOLNI herbicidal damage (five point scale) [10]: 5 (5=80-100% damage)
- POST Application AMARE herbicidal damage (five point scale) [11]: 5 (5=80-100% damage)
- POST Application IPOHE herbicidal damage (five point scale) [12]: 5 (5=80-100% damage)

Structure (SMILES): CCCn1ncc(-c2c(Cl)ccc(Cl)c2Cl)c(O)c1=O [Compound 1.128]
- PRE Application ALOMY herbicidal damage (five point scale) [1]: 1 (1=0-19% damage)
- PRE Application SETFA herbicidal damage (five point scale) [2]: 1 (1=0-19% damage)
- PRE Application ECHCG herbicidal damage (five point scale) [3]: 1 (1=0-19% damage)
- PRE Application SOLNI herbicidal damage (five point scale) [4]: 1 (1=0-19% damage)
- PRE Application AMARE herbicidal damage (five point scale) [5]: 1 (1=0-19% damage)
- PRE Application IPOHE herbicidal damage (five point scale) [6]: 1 (1=0-19% damage)
- POST Application ALOMY herbicidal damage (five point scale) [7]: 1 (1=0-19% damage)
- POST Application SETFA herbicidal damage (five point scale) [8]: 2 (2=20-39% damage)
- POST Application ECHCG herbicidal damage (five point scale) [9]: 1 (1=0-19% damage)
- POST Application SOLNI herbicidal damage (five point scale) [10]: 4 (4=60-79% damage)
- POST Application AMARE herbicidal damage (five point scale) [11]: 1 (1=0-19% damage)
- POST Application IPOHE herbicidal damage (five point scale) [12]: 3 (3=40-59% damage)

Structure (SMILES): Cn1ncc(-c2ccc(C(F)(F)F)nc2O)c(O)c1=O [Compound 4.006]
- PRE Application ALOMY herbicidal damage (five point scale) [1]: 1 (1=0-19% damage)
- PRE Application SETFA herbicidal damage (five point scale) [2]: 1 (1=0-19% damage)
- PRE Application ECHCG herbicidal damage (five point scale) [3]: 1 (1=0-19% damage)
- PRE Application SOLNI herbicidal damage (five point scale) [4]: 1 (1=0-19% damage)
- PRE Application AMARE herbicidal damage (five point scale) [5]: 1 (1=0-19% damage)
- PRE Application IPOHE herbicidal damage (five point scale) [6]: 1 (1=0-19% damage)
- POST Application ALOMY herbicidal damage (five point scale) [7]: 1 (1=0-19% damage)
- POST Application SETFA herbicidal damage (five point scale) [8]: 1 (1=0-19% damage)
- POST Application ECHCG herbicidal damage (five point scale) [9]: 1 (1=0-19% damage)
- POST Application SOLNI herbicidal damage (five point scale) [10]: 4 (4=60-79% damage)
- POST Application AMARE herbicidal damage (five point scale) [11]: 3 (3=40-59% damage)
- POST Application IPOHE herbicidal damage (five point scale) [12]: 2 (2=20-39% damage)
